# Columns and labels:
# MCF7 [1] = assay: Antiproliferative activity against human MCF7 cells assessed as reduction in cell viability incubated for 6 days by CellTiter-Glo reagent based luminescence analysis
# [2] = target: Voltage-gated inwardly rectifying potassium channel KCNH2 (Homo sapiens, UniProt Q12809); assay: Inhibition of hERG expressed in CHO cells assessed as inhibition of channel current by automated Qpatch clamp analysis
# [3] = Toxicity in Sprague-Dawley rat assessed as thickened endometrium in uterus at 60 mg/kg, po qd for 3 days by Hematoxylin-Eosin staining based analysis; assay type: organism-based; settings: in vivo, 72 h, time 3 day
# [4] = Estrogenic like activity in Sprague-Dawley rat assessed as increase in ratio of uterine wet weight to body weight at 60 mg/kg, po qd for 3 days relative to control; assay type: toxicity, organism-based; settings: in vivo, 72 h, time 3 day
# Estrogen receptor [5] = target: T1, Estrogen receptor (Homo sapiens, UniProt P03372); assay: Induction of ER-alpha degradation in human MCF7 cells incubated for 24 hrs by In-Cell Western blot analysis; assay type: cell-based
# T1 sequence (P03372 whole entry): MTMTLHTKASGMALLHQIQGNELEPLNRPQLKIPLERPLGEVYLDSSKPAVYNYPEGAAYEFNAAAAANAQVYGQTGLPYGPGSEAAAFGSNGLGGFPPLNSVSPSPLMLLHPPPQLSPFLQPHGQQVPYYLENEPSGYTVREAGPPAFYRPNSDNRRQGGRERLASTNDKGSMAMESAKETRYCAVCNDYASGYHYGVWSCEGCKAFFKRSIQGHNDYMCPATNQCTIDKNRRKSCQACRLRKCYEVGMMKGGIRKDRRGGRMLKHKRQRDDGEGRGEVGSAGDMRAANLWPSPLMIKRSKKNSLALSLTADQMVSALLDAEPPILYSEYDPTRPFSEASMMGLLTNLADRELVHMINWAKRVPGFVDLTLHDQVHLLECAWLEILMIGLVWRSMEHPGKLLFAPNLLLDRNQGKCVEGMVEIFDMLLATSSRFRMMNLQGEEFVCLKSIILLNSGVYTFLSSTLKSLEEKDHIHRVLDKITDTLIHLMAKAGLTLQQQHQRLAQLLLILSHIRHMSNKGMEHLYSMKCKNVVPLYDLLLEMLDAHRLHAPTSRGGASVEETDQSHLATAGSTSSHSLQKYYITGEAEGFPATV
# MCF7 [6] = assay: Antiproliferative activity against human MCF7 cells harboring ER-alpha Y537S mutant assessed as inhibition of cell growth
# [7] = Antagonist activity at ER-alpha Y537S mutant (unknown origin) expressed in human MCF7 cells assessed as inhibition of ER-alpha transcription by immunofluorescence assay
# Estrogen receptor [8] = target: T1, Estrogen receptor; assay type: cell-based, HEK293
# [9] = Antiproliferative activity against endocrine-resistant human MCF7 Tam1 cells assessed as inhibition of cell growth; settings: Tamoxifen-resistant MCF7
# [10] = Antagonist activity at ER-alpha D538G mutant (unknown origin) expressed in human MCF7 cells assessed as inhibition of ER-alpha transcription by immunofluorescence assay
# T47D = assay: Antiproliferative activity against human T47D cells assessed as reduction in cell viability
# MDA-MB-361 = assay: Antiproliferative activity against human MDA-MB-361 cells assessed as reduction in cell viability
# CAMA-1 = assay: Antiproliferative activity against human CAMA-1 cells assessed as reduction in cell viability
# BT-474 = assay: Antiproliferative activity against human BT-474 cells assessed as reduction in cell viability
# [11] = Estrogenic like activity in Sprague-Dawley rat assessed as increase in ratio of uterine wet weight to body weight at 0.1 mg/kg, po qd for 3 days relative to control; assay type: toxicity, organism-based; settings: in vivo, 72 h, time 3 day
# [12] = Toxicity in Sprague-Dawley rat assessed as thickened endometrium in uterus at 0.1 mg/kg, po qd for 3 days by Hematoxylin-Eosin staining based analysis; assay type: organism-based; settings: in vivo, 72 h, time 3 day
# Sequence of Voltage-gated inwardly rectifying potassium channel KCNH2 (Q12809 whole entry): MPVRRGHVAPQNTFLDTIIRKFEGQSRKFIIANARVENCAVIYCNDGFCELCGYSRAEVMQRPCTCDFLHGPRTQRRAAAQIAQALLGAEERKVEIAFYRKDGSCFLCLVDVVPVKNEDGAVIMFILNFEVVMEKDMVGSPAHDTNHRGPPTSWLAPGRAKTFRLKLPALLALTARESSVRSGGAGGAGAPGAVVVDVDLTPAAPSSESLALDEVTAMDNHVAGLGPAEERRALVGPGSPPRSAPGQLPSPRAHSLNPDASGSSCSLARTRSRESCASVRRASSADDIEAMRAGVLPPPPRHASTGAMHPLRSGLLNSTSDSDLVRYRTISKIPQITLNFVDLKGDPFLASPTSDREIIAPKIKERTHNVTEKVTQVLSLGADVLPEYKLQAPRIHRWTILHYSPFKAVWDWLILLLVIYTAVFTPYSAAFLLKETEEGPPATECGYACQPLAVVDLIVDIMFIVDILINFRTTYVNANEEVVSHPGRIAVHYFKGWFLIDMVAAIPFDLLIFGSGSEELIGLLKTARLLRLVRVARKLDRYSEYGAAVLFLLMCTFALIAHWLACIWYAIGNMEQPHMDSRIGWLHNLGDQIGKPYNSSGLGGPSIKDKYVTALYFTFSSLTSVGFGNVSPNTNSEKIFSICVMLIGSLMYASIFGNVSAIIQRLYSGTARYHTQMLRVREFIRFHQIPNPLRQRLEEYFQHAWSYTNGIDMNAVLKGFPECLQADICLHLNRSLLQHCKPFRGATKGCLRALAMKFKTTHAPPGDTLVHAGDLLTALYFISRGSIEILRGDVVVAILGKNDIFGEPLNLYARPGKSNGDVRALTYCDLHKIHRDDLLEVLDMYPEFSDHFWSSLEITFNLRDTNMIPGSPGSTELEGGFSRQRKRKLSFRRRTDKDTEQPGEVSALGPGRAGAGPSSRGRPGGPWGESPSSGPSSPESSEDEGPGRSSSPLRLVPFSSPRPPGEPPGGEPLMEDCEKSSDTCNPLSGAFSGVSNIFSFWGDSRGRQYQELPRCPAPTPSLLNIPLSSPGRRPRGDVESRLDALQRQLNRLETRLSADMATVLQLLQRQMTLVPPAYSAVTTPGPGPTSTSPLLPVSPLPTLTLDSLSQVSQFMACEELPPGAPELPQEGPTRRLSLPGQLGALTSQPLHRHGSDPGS
structure (smiles),measurement,setting,value
CC1(C)C[C@H](c2ccc(F)cc2F)[C@H](c2ccc(OCCN3CC(CF)C3)cc2)c2ccc(O)cc21 (racemic),IC50,"MCF7 [1]; Homo sapiens, MCF7, 144 h",8.8 nM
Oc1ccc2c(c1)OC[C@H](c1ccc(F)cc1F)[C@@H]2c1ccc(O[C@H]2CCN(CCCF)C2)cc1 (racemic),IC50,"MCF7 [1]; Homo sapiens, MCF7, 144 h",7.7 nM
COc1cc(F)ccc1[C@H]1COc2cc(O)ccc2[C@H]1c1ccc(OCCN2CC(CF)C2)cc1 (racemic),IC50,"MCF7 [1]; Homo sapiens, MCF7, 144 h",0.56 nM
same,IC50,[2],4800 nM
CC/C(=C(\c1ccc(O)cc1)c1ccc(OCCN(C)C)cc1)c1ccccc1 [AFIMOXIFENE],Activity,[3],Toxic
same,fold change (FC),[4],2
Oc1ccc2c(c1)OC[C@H](C1CCOCC1)[C@@H]2c1ccc(OCCN2CC(CF)C2)cc1 (racemic),IC50,"MCF7 [1]; Homo sapiens, MCF7, 144 h",1.6 nM
Oc1ccc2c(c1)OC[C@H](c1ccc(F)cc1F)[C@@H]2c1ccc(NC2CN(CCCF)C2)cc1 (racemic),IC50,"MCF7 [1]; Homo sapiens, MCF7, 144 h",3.1 nM
same,IC50,[2],3600 nM
same,DC50,Estrogen receptor [5],1 nM
Oc1ccc2c(c1)OC[C@H](c1ccc(F)cc1F)[C@@H]2c1ccc(OCCN2CC(CF)C2)nc1 (racemic),IC50,"MCF7 [1]; Homo sapiens, MCF7, 144 h",1.7 nM
Oc1ccc2c(c1)OC[C@H](c1cc(F)c(F)cc1F)[C@@H]2c1ccc(OCCN2CC(CF)C2)cc1 (racemic),IC50,[2],2800 nM
CC(=O)N1CCC([C@H]2COc3cc(O)ccc3[C@H]2c2ccc(OCCN3CC(CF)C3)cc2)CC1 (racemic),IC50,"MCF7 [1]; Homo sapiens, MCF7, 144 h",9.5 nM
same,DC50,Estrogen receptor [5],24 nM
Oc1ccc2c(c1)OC[C@H](c1ccc(F)cc1F)[C@@H]2c1ccc(OCCN2CC(CF)C2)c(F)c1 (racemic),IC50,[2],6400 nM
Oc1ccc2c(c1)OCC[C@H](c1ccc(F)cc1F)[C@@H]2c1ccc(OCCN2CC(CF)C2)cc1 (racemic),IC50,"MCF7 [1]; Homo sapiens, MCF7, 144 h",47 nM
O=C(CN1CC(CF)C1)Nc1ccc([C@@H]2c3ccc(O)cc3OC[C@@H]2c2ccc(F)cc2F)cc1 (racemic),IC50,"MCF7 [1]; Homo sapiens, MCF7, 144 h",243 nM
Oc1ccc2c(c1)OCC(c1ccc(F)cc1F)=C2c1ccc(OCCN2CC(CF)C2)cc1,IC50,"MCF7 [1]; Homo sapiens, MCF7, 144 h",58 nM
COc1cc(F)ccc1[C@H]1CSc2cc(O)ccc2[C@H]1c1ccc(OCCN2CC(CF)C2)cc1 (racemic),IC50,MCF7 [1]; mcf7,0.6 nM
same,IC50,[2],> 40000 nM
Oc1ccc2c(c1)CCC[C@H](c1ccc(F)cc1F)[C@@H]2c1ccc(OCCN2CC(CF)C2)cc1 (racemic),IC50,"MCF7 [1]; Homo sapiens, MCF7, 144 h",19 nM
same,IC50,[2],> 40000 nM
same,DC50,Estrogen receptor [5],22.7 nM
Oc1ccc2c(c1)OC[C@H](c1ccc(F)cc1F)[C@@H]2c1ccc(OC2CN(CCCF)C2)cc1 (racemic),IC50,"MCF7 [1]; Homo sapiens, MCF7, 144 h",7.7 nM
same,DC50,Estrogen receptor [5],2.8 nM
Oc1ccc2c(c1)OC[C@H](c1ccc(F)cc1F)[C@@H]2c1ccc(NCCN2CC(CF)C2)cc1 (racemic),IC50,"MCF7 [1]; Homo sapiens, MCF7, 144 h",9.3 nM
same,DC50,Estrogen receptor [5],1.7 nM
C[C@@H]1Cc2c(ccc3[nH]ncc23)[C@@H](c2ccc(NC3CN(CCCF)C3)cn2)N1CC(F)(F)F [CAMIZESTRANT],IC50,"MCF7 [1]; Homo sapiens, MCF7, 144 h",0.68 nM
same,IC50,MCF7 [6],21.2 nM
Oc1ccc2c(c1)OC[C@H](c1ccc(Cl)cc1F)[C@@H]2c1ccc(OCCN2CC(CF)C2)cc1 (racemic),IC50,"MCF7 [1]; Homo sapiens, MCF7, 144 h",4.2 nM
COc1ccc([C@H]2COc3cc(O)ccc3[C@H]2c2ccc(OCCN3CC(CF)C3)cc2)cn1 (racemic),IC50,"MCF7 [1]; Homo sapiens, MCF7, 144 h",0.86 nM
COc1ccc([C@H]2COc3cc(O)ccc3[C@H]2c2ccc(OCCN3CC(CF)C3)cc2)c(F)c1 (racemic),IC50,"MCF7 [1]; Homo sapiens, MCF7, 144 h",0.87 nM
same,IC50,[2],3500 nM
O=C(O)c1ccc2c(c1)CCCC(c1ccc(Cl)cc1Cl)=C2c1ccc(O[C@H]2CCN(CCCF)C2)cc1 [AMCENESTRANT],IC50,"MCF7 [1]; Homo sapiens, MCF7, 144 h",3.9 nM
same,IC50,[7],57.5 nM
COc1ccc([C@H]2CSc3cc(O)ccc3[C@H]2c2ccc(OCCN3CC(CF)C3)cc2)c(F)c1 (racemic),IC50,"MCF7 [1]; Homo sapiens, MCF7, 144 h",0.4 nM
C[C@@H]1Cc2c([nH]c3ccccc23)[C@@H](c2c(F)cc(NC3CN(CCCF)C3)cc2F)N1CC(F)(F)CO [GIREDESTRANT],IC50,"MCF7 [1]; Homo sapiens, MCF7, 144 h",0.2 nM
same,IC50,MCF7 [6],6.77 nM
same,IC50,Estrogen receptor [8],0.43 nM
same,IC50,[9],1.22 nM
same,DC50,Estrogen receptor [5],0.3 nM
FCC1CN(CCOc2ccc([C@@H]3c4ccc5[nH]ncc5c4SC[C@@H]3c3cc(F)c(F)cc3F)cc2)C1 (racemic),IC50,"MCF7 [1]; Homo sapiens, MCF7, 144 h",5.8 nM
same,DC50,Estrogen receptor [5],6.6 nM
O=C1CC[C@H](N2Cc3cc(N4CCN(CC5CCN(c6ccc([C@@H]7c8ccc(O)cc8CC[C@@H]7c7ccccc7)cc6)CC5)CC4)ccc3C2=O)C(=O)N1 [VEPDEGESTRANT],IC50,"MCF7 [1]; Homo sapiens, MCF7, 144 h",2.7 nM
same,IC50,MCF7 [6],133 nM
same,IC50,[9],2.12 nM
Cn1cc([C@H]2COc3cc(O)ccc3[C@H]2c2ccc(OCCN3CC(CF)C3)cc2)cn1 (racemic),IC50,"MCF7 [1]; Homo sapiens, MCF7, 144 h",38 nM
same,DC50,Estrogen receptor [5],98 nM
Oc1ccc2c(c1)SC[C@H](c1ccc(F)cc1F)[C@@H]2c1ccc(OCCN2CC(CF)C2)cc1 (racemic),IC50,"MCF7 [1]; Homo sapiens, MCF7, 144 h",0.6 nM
same,IC50,[2],13000 nM
Oc1ccc2c(c1)SC[C@H](c1cc(F)c(F)cc1F)[C@@H]2c1ccc(OCCN2CC(CF)C2)cc1 (racemic),IC50,"MCF7 [1]; Homo sapiens, MCF7, 144 h",0.4 nM
C[C@]12CC[C@@H]3c4ccc(O)cc4C[C@@H](CCCCCCCCC[S+]([O-])CCCC(F)(F)C(F)(F)F)[C@H]3[C@@H]1CC[C@@H]2O (some centres not stated) [FULVESTRANT],IC50,[10],15.3 nM
same,IC50,[7],13.3 nM
Oc1ccc2c(c1)SC[C@@H](c1cc(F)c(F)cc1F)[C@H]2c1ccc(OCCN2CC(CF)C2)cc1,IC50,"MCF7 [1]; Homo sapiens, MCF7, 144 h",714 nM
Oc1ccc2c(c1)SC[C@H](c1cc(F)c(F)cc1F)[C@@H]2c1ccc(OCCN2CC(CF)C2)cc1,IC50,MCF7 [1]; mcf7,0.25 nM
same,IC50,T47D,4 nM
same,IC50,MDA-MB-361,~15 nM
same,IC50,CAMA-1,4 nM
same,IC50,BT-474,4 nM
Cc1cc(F)ccc1[C@H]1CSc2cc(O)ccc2[C@H]1c1ccc(OCCN2CC(CF)C2)cc1 (racemic),IC50,"MCF7 [1]; Homo sapiens, MCF7, 144 h",0.8 nM
COc1cc(F)ccc1[C@H]1CSc2cc(C(=O)O)ccc2[C@H]1c1ccc(OCCN2CC(CF)C2)cc1 (racemic),IC50,"MCF7 [1]; Homo sapiens, MCF7, 144 h",1.7 nM
same,DC50,Estrogen receptor [5],9.6 nM
COc1cc(F)ccc1[C@@H]1CSc2cc(O)ccc2[C@@H]1c1ccc(OCCN2CC(CF)C2)cc1,IC50,"MCF7 [1]; Homo sapiens, MCF7, 144 h",25 nM
COc1cc(F)ccc1[C@H]1CSc2cc(O)ccc2[C@H]1c1ccc(NC2CN(CCCF)C2)cc1 (racemic),IC50,"MCF7 [1]; Homo sapiens, MCF7, 144 h",0.9 nM
same,IC50,[2],22000 nM
Oc1ccc2c(c1)OC[C@H](c1ccc(F)cc1F)[C@@H]2c1ccc(OCCN2CC(CF)C2)cc1 (racemic),IC50,"MCF7 [1]; Homo sapiens, MCF7, 144 h",1.2 nM
N#Cc1cc(F)ccc1[C@H]1COc2cc(O)ccc2[C@H]1c1ccc(OCCN2CC(CF)C2)cc1 (racemic),IC50,"MCF7 [1]; Homo sapiens, MCF7, 144 h",4.9 nM
Oc1ccc2c(c1)OC[C@H](c1ccc(F)cc1F)[C@@H]2c1ccc(OCCN2CC(CF)C2)cc1F (racemic),IC50,[2],5400 nM
COc1cc(F)ccc1[C@H]1CSc2cc(O)ccc2[C@H]1c1ccc(OCCN2CC(CF)C2)c(F)c1 (racemic),IC50,"MCF7 [1]; Homo sapiens, MCF7, 144 h",0.7 nM
same,IC50,[2],> 40000 nM
CS(=O)(=O)N1CCC([C@H]2COc3cc(O)ccc3[C@H]2c2ccc(OCCN3CC(CF)C3)cc2)CC1 (racemic),IC50,"MCF7 [1]; Homo sapiens, MCF7, 144 h",6.2 nM
same,DC50,Estrogen receptor [5],8.8 nM
COc1cc(F)ccc1[C@H]1CS(=O)(=O)c2cc(O)ccc2[C@H]1c1ccc(OCCN2CC(CF)C2)cc1 (racemic),IC50,"MCF7 [1]; Homo sapiens, MCF7, 144 h",1.6 nM
same,IC50,[2],> 40000 nM
Oc1ccc2c(c1)OC[C@H](c1ccc(F)cc1F)[C@@H]2c1cc(F)c(OCCN2CC(CF)C2)c(F)c1 (racemic),IC50,"MCF7 [1]; Homo sapiens, MCF7, 144 h",1.4 nM
same,IC50,[2],1900 nM
COc1cc(F)ccc1[C@H]1CSc2c(ccc3[nH]ncc23)[C@H]1c1ccc(OCCN2CC(CF)C2)cc1 (racemic),IC50,"MCF7 [1]; Homo sapiens, MCF7, 144 h",7.4 nM
same,DC50,Estrogen receptor [5],6.3 nM
COc1cc([C@@H]2c3ccc(O)cc3OC[C@@H]2c2ccc(F)cc2F)ccc1OCCN1CC(CF)C1 (racemic),IC50,"MCF7 [1]; Homo sapiens, MCF7, 144 h",4.8 nM
same,DC50,Estrogen receptor [5],4.5 nM
C#C[C@]1(O)CC[C@H]2[C@@H]3CCc4cc(O)ccc4[C@H]3CC[C@@]21C [ETHINYL ESTRADIOL],fold change (FC),[11],3
same,Activity,[12],Toxic
